Experimental data: patent publication US5117037A, “Cis-bicyclo[4,3.0]non-2-end derivatives” (Sagami Chemical Research Center Toa Eiyo Ltd., priority 1989, dated 1992)

Experiments:
[1] = tested on: platelet aggregation (ADP-induced); assay: Platelet anti-aggregatory activities, ADP-induced aggregation of washed platelet suspension; assay type: cell-based, Japanese white male rabbits; conditions: for IC50: Oryctolagus cuniculus, 0.05 h, rabbit platelet suspension, 3 min preincubation, read-out: Platelet anti-aggregatory activities ED50, ADP (concentration inhibiting 50% of the platelet aggregation); for activity ratio, ADP (PGI2 = 1): ratio of ED50 relative to PGI2
Experimental: (§1) Japanese white male rabbits having a weight of from 2.0 to 2.5 kg were used.
(§2) Under anesthesia with pentobarbital sodium, blood was collected from the carotid artery and mixed with citric acid dextrose solution (1/7 volume) as an anticoagulant. Then, the mixture was subjected to centrifugal separation at 140 ×g for 15 minutes, whereupon the supernatant (platelet rich plasma: PRP) was collected. PRP was subjected to centrifugal separation at 1,300 ×g for 7 minutes, and platelet pellets thereby obtained were washed with a HEPES buffer solution (pH 6.5) for washing platelets and then subjected to centrifugal separation at 1,300 ×g for 7 minutes. The platelet pellets were washed twice under the same conditions and then suspended in a suspending solution (prepared by adding 0.1% […] for washing platelets) to make a platelet suspension containing from 5 to 8×10^8 platelets/ml. An aggregation meter was used for the measurement of the platelet aggregatory ability. To 380 μl of the platelet suspension, 10 μl of a test compound or a solvent as control was added. Three minutes later, 10 μl of a platelet aggregatory substance (as the final concentration: […], or […]) was added to induce platelet aggregation. The blood platelet anti-aggregatory activities by the test compound was represented by ED50 (i.e. the concentration of the test compound inhibiting 50% of the platelet aggregation).

[2] = tested on: platelet aggregation (collagen-induced); assay: Platelet anti-aggregatory activities, collagen-induced aggregation of washed platelet suspension; assay type: cell-based, Japanese white male rabbits; conditions: for IC50: Oryctolagus cuniculus, 0.05 h, rabbit platelet suspension, 3 min preincubation, read-out: Platelet anti-aggregatory activities ED50, collagen (concentration inhibiting 50% of the platelet aggregation)
Experimental: as §1, §2

[3] = tested on: gastric lesion induced by ethanol; assay: Inhibitory effect on formation of gastric lesion induced by ethanol; assay type: in vivo, Male wistar rats; conditions: rat, p.o, 1.5 hours later; for ED50: po, 1 ml of 99.5% ethanol orally 30 minutes after test compound, read-out: Inhibitory effect on formation of gastric lesion induced by ethanol ED50 (dose at which the ulcer was inhibited by 50%); for activity ratio, gastric lesion (PGE2 = 1): ratio of ED50 relative to PGE2
Experimental: Male wistar rats having a weight of from 170 to 270 g were put into individual cages and starved for 24 hours. During this starvation period, the rats were allowed to drink water freely. A test compound or PGE2 as a comparative compound was orally administered at a dose of 3 μg/kg, 10 μg/kg or 30 μg/kg, and 30 minutes later, 1 ml of 99.5% ethanol was orally administered to each rat. One hour or 4.5 hours after the ethanol administration, each rat was sacrificed by cervical vertebral dislocation, and the stomach was taken out. Each stomach was inflated with an amount of about 8 ml of 1% formaline solution and put into 1% formaline solution for 30 minutes to fix the gastric wall. After the fixing, the stomach was severed along the greater curvature, and the mucous membrane surface of the stomach was gently washed with flowing water. Then, the total length of lesions appearing on the gastric glandular portion was determined and used as the ulcer index.
The inhibitory effect of the test compound was represent by ED50 (i.e. the dose of the test compound at which the ulcer was inhibited by 50% relative to the ulcer index of the non-treated group). To the non-treated group, the solvent was administered.

Row | IC50 [1] | IC50 [2] | SMILES | activity ratio, ADP (PGI2 = 1) [1] | ED50 [3] | activity ratio, gastric lesion (PGE2 = 1) [3] | activity ratio, collagen (PGI2 = 1) ([2]; ratio of ED50 relative to PGI2)
1 | 2.9 nM | 3.4 nM | CCCCC[C@H](O)/C=C/[C@@H]1[C@H]2C/C(=C/CCCC(=O)O)O[C@H]2C[C@H]1O [PGI2, reference compound] |  |  |  | 
2 | 2.7 nM | 8.6 nM | CCC#CCC(C)(C)[C@H](O)C#C[C@@H]1[C@H]2CCC(CCOCC(=O)O)=C[C@H]2C[C@H]1O [g, 3-(3-oxa-4-carboxybutyl)-7-exo-(4,4-dimethyl-3α-hydroxy-1,6-nondiynyl)-8-endo-hydroxy-cisbicyclo[4.3.0]non-2-ene] | 1.1 |  |  | 
3 |  |  | CCC#CC[C@@H](C)[C@H](O)C#C[C@@H]1[C@H]2CCC(CCOCC(=O)O)=C[C@H]2C[C@H]1O [f] |  | 2.1 µg/kg | 4.3 | 
4 | 1.3 nM | 0.58 nM | CCC#CCC(C)(C)[C@H](O)C#C[C@@H]1[C@H]2CCC(/C=C\CCC(=O)O)=C[C@H]2C[C@H]1O [c] | 2.2 | 0.97 µg/kg | 9.3 | 5.9
